Data: publication PMC5109050, “Structure and Function of Cyanobacterial DHDPS and DHDPR” (Scientific Reports, 2016)

Experiments:
Av-DHDPR = biological target: T1, Av-DHDPR (Trichormus variabilis, UniProt Q3MFY8); experiment: microscale thermophoresis, label-free, single-site fit; format: binding
T1 construct: gene dapB; synthetic codon-optimised dapB in pRSET-A, His-tagged, E. coli BL21-DE3 pLysS, IMAC; homotetramer 139 kDa; monomer of 287 residues in crystal
T1 sequence (Q3MFY8 2-278): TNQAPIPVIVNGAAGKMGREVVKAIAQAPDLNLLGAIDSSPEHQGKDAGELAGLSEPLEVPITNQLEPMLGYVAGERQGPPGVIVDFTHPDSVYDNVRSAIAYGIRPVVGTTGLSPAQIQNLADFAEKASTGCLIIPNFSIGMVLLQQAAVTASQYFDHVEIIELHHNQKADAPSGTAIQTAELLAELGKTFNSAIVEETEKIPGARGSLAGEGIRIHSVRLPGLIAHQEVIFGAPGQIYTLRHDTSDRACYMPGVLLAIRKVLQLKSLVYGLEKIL

Av-DHDPS [1] = biological target: T2, Av-DHDPS (Trichormus variabilis, UniProt Q3M723); experiment: DHDPS-DHDPR coupled assay, dose response, four-parameter logistic; format: biochemical
T2 construct: gene dapA; synthetic codon-optimised dapA in pRSET-A, His-tagged, E. coli BL21-DE3 pLysS, IMAC; homotetramer 147 kDa; monomer of 297 residues in crystal; active-site Lys164
T2 sequence (Q3M723 entry or part of it): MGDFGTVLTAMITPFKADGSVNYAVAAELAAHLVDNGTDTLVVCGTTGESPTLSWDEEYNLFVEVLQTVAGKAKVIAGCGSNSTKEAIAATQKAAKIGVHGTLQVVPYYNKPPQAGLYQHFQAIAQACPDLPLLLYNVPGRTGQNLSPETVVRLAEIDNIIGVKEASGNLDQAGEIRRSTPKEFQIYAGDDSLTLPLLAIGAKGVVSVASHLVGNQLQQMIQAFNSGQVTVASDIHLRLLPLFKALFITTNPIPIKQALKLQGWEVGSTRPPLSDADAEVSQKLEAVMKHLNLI
Source text: DHDPS-DHDPR coupled assay, dose response, four-parameter logistic on Av-DHDPS

Ec-DHDPS = biological target: T3, Ec-DHDPS (Escherichia coli, UniProt P0A6L2); experiment: as above; format: biochemical
T3 construct: gene dapA; control enzyme; construct not described here
T3 sequence (P0A6L2 1-292): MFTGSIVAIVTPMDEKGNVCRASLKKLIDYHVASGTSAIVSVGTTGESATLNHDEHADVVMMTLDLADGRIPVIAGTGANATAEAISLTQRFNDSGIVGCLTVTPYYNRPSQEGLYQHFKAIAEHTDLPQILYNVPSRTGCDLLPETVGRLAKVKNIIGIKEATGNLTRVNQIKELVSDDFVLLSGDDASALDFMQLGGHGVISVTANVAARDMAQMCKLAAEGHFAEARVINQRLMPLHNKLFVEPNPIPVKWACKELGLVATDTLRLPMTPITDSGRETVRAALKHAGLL

Vv-DHDPS = biological target: T4, Vv-DHDPS (Vitis vinifera, UniProt D7U7T8); experiment: as above; format: biochemical; conditions: 30 °C; allosteric feedback inhibitor; control enzyme
T4 construct: gene VIT_15s0048g00750; control enzyme; construct not described here
T4 sequence (D7U7T8 40-365 limits assumed): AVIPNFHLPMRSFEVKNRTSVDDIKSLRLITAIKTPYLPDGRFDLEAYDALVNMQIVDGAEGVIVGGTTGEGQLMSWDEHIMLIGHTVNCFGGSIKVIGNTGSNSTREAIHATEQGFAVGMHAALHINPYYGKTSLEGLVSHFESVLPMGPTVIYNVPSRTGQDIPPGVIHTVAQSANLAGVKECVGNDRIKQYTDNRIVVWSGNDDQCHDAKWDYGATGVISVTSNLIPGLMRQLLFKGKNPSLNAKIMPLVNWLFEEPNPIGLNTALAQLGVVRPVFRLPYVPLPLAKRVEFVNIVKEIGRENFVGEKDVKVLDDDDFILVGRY

Av-DHDPS [2] = biological target: T2, Av-DHDPS; experiment: X-ray crystallography, […] Å; format: binding; conditions: covalent; bound to Lys164 in active site; crystallised with 10 mM pyruvate, pH 6.5
[3] = biological target: dihydrodipicolinate reductase from Anabaena variabilis (Anabaena variabilis) (UniProt N8WZH2); experiment: AUC; sedimentation velocity, 20 °C, 40,000 rpm, absorbance at 230 nm, initial concentrations 0.1-7.0 μM (size-distribution analysis at 4.0 μM); single species, tetramer
[4] = biological target: dihydrodipicolinate synthase from Anabaena variabilis (Anabaena variabilis) (UniProt N8VIX7); experiment: as above

Compound: O=C(O)c1cccc(C(=O)O)n1 [2,6-pyridinedicarboxylate]
- Kd (Av-DHDPR): 100 ± 8.2 µM

Compound: NCCCC[C@H](N)C(=O)O [(S)-lysine]
- IC50 (Av-DHDPS [1]): 68 µM
- IC50 (Ec-DHDPS): 210 µM
- IC50 (Vv-DHDPS): 30 µM

Compound: CC(=O)C(=O)O [pyruvate]
- X-ray crystallography, 1.92 Å (Av-DHDPS [2]): Shown in purple is the substrate pyruvate bonded to Lys164 in Av-DHDPS.

Compound: dihydrodipicolinate reductase from Anabaena variabilis (from UniProt N8WZH2 1-273) (enzyme)
- stoichiometry N [3]: 4

Compound: dihydrodipicolinate synthase from Anabaena variabilis (from UniProt N8VIX7 1-299) (enzyme)
- stoichiometry N [4]: 4
